One assay concerns the target mouse TAAR1 (Mus musculus (Mouse), UniProt Q923Y8). Description: Radioligand binding assay on mouse TAAR1. The note with it: mouse TAAR1 (first value of the cell), HEK-293 membranes; read-out: Ki (μM) mouse/rat. The method, boiled down: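 Membranes from HEK293 cells stably expressing mouse TAAR1, Kd of radioligand determined per batch by saturation. Compounds tested 10 pM to 10 μM in duplicate, incubated 1 h at 4 °C, then filtration over PEI-soaked GF/C filters and scintillation counting.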
Chain of mouse TAAR1 (Q923Y8 whole entry): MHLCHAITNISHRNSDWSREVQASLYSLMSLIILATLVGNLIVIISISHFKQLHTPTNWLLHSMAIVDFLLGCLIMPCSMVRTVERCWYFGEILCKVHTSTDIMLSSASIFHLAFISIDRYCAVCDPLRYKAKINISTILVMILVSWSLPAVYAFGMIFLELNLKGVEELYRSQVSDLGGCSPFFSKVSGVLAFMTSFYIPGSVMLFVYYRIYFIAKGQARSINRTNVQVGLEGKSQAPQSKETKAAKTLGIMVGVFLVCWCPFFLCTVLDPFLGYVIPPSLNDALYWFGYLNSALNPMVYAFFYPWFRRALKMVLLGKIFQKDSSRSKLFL
Chain of rat TAAR1 (Q923Y9 whole entry): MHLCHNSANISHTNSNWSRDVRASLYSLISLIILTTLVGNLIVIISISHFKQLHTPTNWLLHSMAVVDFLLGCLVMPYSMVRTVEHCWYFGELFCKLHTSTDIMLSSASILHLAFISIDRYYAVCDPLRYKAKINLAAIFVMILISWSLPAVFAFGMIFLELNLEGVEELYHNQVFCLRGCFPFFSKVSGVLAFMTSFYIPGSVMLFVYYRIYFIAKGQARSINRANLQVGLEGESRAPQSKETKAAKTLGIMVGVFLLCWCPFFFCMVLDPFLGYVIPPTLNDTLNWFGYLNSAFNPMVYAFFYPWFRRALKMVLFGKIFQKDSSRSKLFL
`Fc1cc([C@@H]2CNCCO2)ccc1Nc1ncc(OCC(F)(F)F)cn1` [Example 144, ((R)-2-Fluoro-4-morpholin-2-yl-phenyl)-[5-(2,2,2-trifluoro-ethoxy)-pyrimidin-2-yl]-amine]: the Ki is 0.0042 µM.

Turning to `Fc1cc([C@H]2CNCCO2)ccc1Nc1ncc(OCC(F)(F)F)cn1` [Example 145, ((S)-2-Fluoro-4-morpholin-2-yl-phenyl)-[5-(2,2,2-trifluoro-ethoxy)-pyrimidin-2-yl]-amine], the Ki was 0.0034 µM.

Regarding `c1coc(-c2cnc(Nc3ccc([C@H]4CNCCO4)cc3)nc2)c1` [Example 147, (5-Furan-2-yl-pyrimidin-2-yl)-((S)-4-morpholin-2-yl-phenyl)-amine], the Ki is 0.0009 µM.

As to `c1coc(-c2cnc(Nc3ccc([C@@H]4CNCCO4)cc3)nc2)c1` [Example 148, (5-Furan-2-yl-pyrimidin-2-yl)-((R)-4-morpholin-2-yl-phenyl)-amine], the Ki came out at 0.0017 µM.

Take `COCCOc1cnc(Nc2ccc([C@@H]3CNCCO3)cc2F)nc1` [Example 151, ((R)-2-Fluoro-4-morpholin-2-yl-phenyl)-[5-(2-methoxy-ethoxy)-pyrimidin-2-yl]-amine]: the Ki amounted to 0.048 µM.

As to `COCCOc1cnc(Nc2ccc([C@H]3CNCCO3)cc2F)nc1` [Example 152, ((S)-2-Fluoro-4-morpholin-2-yl-phenyl)-[5-(2-methoxy-ethoxy)-pyrimidin-2-yl]-amine], the Ki turned out to be 0.0196 µM.

As for `FC(F)(F)c1ncc(Nc2ccc([C@H]3CNCCO3)cc2)cn1` [Example 153, ((S)-4-Morpholin-2-yl-phenyl)-(2-trifluoromethyl-pyrimidin-5-yl)-amine], the Ki stood at 0.007 µM.

With `FC(F)(F)c1ncc(Nc2ccc([C@@H]3CNCCO3)cc2)cn1` [Example 154, ((R)-4-Morpholin-2-yl-phenyl)-(2-trifluoromethyl-pyrimidin-5-yl)-amine], the Ki was found to be 0.0096 µM.

`Cc1cnc(Nc2ccc([C@H]3CNCCO3)cc2)cn1` [Example 156, (5-Methyl-pyrazin-2-yl)-((S)-4-morpholin-2-yl-phenyl)-amine]: the Ki was found to be 0.0093 µM.

With `Cc1cnc(Nc2ccc([C@@H]3CNCCO3)cc2)cn1` [Example 157, (5-Methyl-pyrazin-2-yl)-((R)-4-morpholin-2-yl-phenyl)-amine], the Ki amounted to 0.0132 µM.

For `CNC(=O)c1cnc(Nc2ccc([C@H]3CNCCO3)cc2)nc1` [Example 158, 2-((S)-4-Morpholin-2-yl-phenylamino)-pyrimidine-5-carboxylic acid methylamide], the Ki amounted to 1.02 µM.

For the compound `CNC(=O)c1cnc(Nc2ccc([C@@H]3CNCCO3)cc2)nc1` [Example 159, 2-((R)-4-Morpholin-2-yl-phenylamino)-pyrimidine-5-carboxylic acid methylamide], the Ki was determined as 1.34 µM.

Regarding `Cc1ccc(Nc2ccc([C@H]3CNCCO3)cc2)nn1` [Example 160, (6-Methyl-pyridazin-3-yl)-((S)-4-morpholin-2-yl-phenyl)-amine], the Ki amounted to 0.0061 µM.

In the case of `c1ccc(Cn2ccc(Nc3ccc([C@H]4CNCCO4)cc3)n2)cc1` [Example 161, (1-Benzyl-1H-pyrazol-3-yl)-((S)-4-morpholin-2-yl-phenyl)-amine], the Ki is 0.0016 µM.

In the case of `c1ccc(Cn2ccc(Nc3ccc([C@@H]4CNCCO4)cc3)n2)cc1` [Example 162, (1-Benzyl-1H-pyrazol-3-yl)-((R)-4-morpholin-2-yl-phenyl)-amine], the Ki was 0.002 µM.

Turning to `c1ccc(-n2ccc(Nc3ccc([C@H]4CNCCO4)cc3)n2)cc1` [Example 163, ((S)-4-Morpholin-2-yl-phenyl)-(1-phenyl-1H-pyrazol-3-yl)-amine], the Ki was found to be 0.0026 µM.

With `c1ccc(-n2ccc(Nc3ccc([C@@H]4CNCCO4)cc3)n2)cc1` [Example 164, ((R)-4-Morpholin-2-yl-phenyl)-(1-phenyl-1H-pyrazol-3-yl)-amine], the Ki is 0.0006 µM.

For `c1cc([C@H]2CNCCO2)ccc1Nc1ccc(C2COC2)cn1` [Example 165, ((S)-4-Morpholin-2-yl-phenyl)-(5-oxetan-3-yl-pyridin-2-yl)-amine], the Ki is 0.011 µM.

With `Cc1cc([C@@H]2CNCCO2)ccc1Nc1ncc(C(F)(F)F)cn1` [Example 166, ((R)-2-Methyl-4-morpholin-2-yl-phenyl)-(5-trifluoromethyl-pyrimidin-2-yl)-amine], the Ki came out at 0.0301 µM.

In a further assay the target is rat TAAR1 (Rattus norvegicus (Rat), UniProt Q923Y9). Description: Radioligand binding assay on rat TAAR1. The note with it: rat TAAR1 (second value of the cell), HEK-293 membranes; read-out: Ki (μM) mouse/rat. The method, boiled down:
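Membranes from HEK293 cells stably expressing rat TAAR1 were used, with radioligand Kd determined by saturation for each batch. Compounds (10 pM to 10 μM, in duplicate) were incubated for 1 h at 4 °C. Bound radioactivity was collected by filtration onto PEI-soaked GF/C filters and counted by scintillation.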
On to `Fc1cc([C@@H]2CNCCO2)ccc1Nc1ncc(OCC(F)(F)F)cn1` [Example 144, ((R)-2-Fluoro-4-morpholin-2-yl-phenyl)-[5-(2,2,2-trifluoro-ethoxy)-pyrimidin-2-yl]-amine], for which the Ki turned out to be 0.0049 µM.

For the compound `Fc1cc([C@H]2CNCCO2)ccc1Nc1ncc(OCC(F)(F)F)cn1` [Example 145, ((S)-2-Fluoro-4-morpholin-2-yl-phenyl)-[5-(2,2,2-trifluoro-ethoxy)-pyrimidin-2-yl]-amine], the Ki was 0.0067 µM.

As to `c1coc(-c2cnc(Nc3ccc([C@H]4CNCCO4)cc3)nc2)c1` [Example 147, (5-Furan-2-yl-pyrimidin-2-yl)-((S)-4-morpholin-2-yl-phenyl)-amine], the Ki came to 0.0197 µM.

Take `c1coc(-c2cnc(Nc3ccc([C@@H]4CNCCO4)cc3)nc2)c1` [Example 148, (5-Furan-2-yl-pyrimidin-2-yl)-((R)-4-morpholin-2-yl-phenyl)-amine]: the Ki amounted to 0.0083 µM.

For the compound `COCCOc1cnc(Nc2ccc([C@@H]3CNCCO3)cc2F)nc1` [Example 151, ((R)-2-Fluoro-4-morpholin-2-yl-phenyl)-[5-(2-methoxy-ethoxy)-pyrimidin-2-yl]-amine], the Ki came to 0.0954 µM.

On to `COCCOc1cnc(Nc2ccc([C@H]3CNCCO3)cc2F)nc1` [Example 152, ((S)-2-Fluoro-4-morpholin-2-yl-phenyl)-[5-(2-methoxy-ethoxy)-pyrimidin-2-yl]-amine], for which the Ki came to 0.268 µM.

As for `FC(F)(F)c1ncc(Nc2ccc([C@H]3CNCCO3)cc2)cn1` [Example 153, ((S)-4-Morpholin-2-yl-phenyl)-(2-trifluoromethyl-pyrimidin-5-yl)-amine], the Ki was determined as 0.84 µM.

For the compound `FC(F)(F)c1ncc(Nc2ccc([C@@H]3CNCCO3)cc2)cn1` [Example 154, ((R)-4-Morpholin-2-yl-phenyl)-(2-trifluoromethyl-pyrimidin-5-yl)-amine], the Ki was 0.863 µM.

For the compound `Cc1cnc(Nc2ccc([C@H]3CNCCO3)cc2)cn1` [Example 156, (5-Methyl-pyrazin-2-yl)-((S)-4-morpholin-2-yl-phenyl)-amine], the Ki came to 0.833 µM.

With `Cc1cnc(Nc2ccc([C@@H]3CNCCO3)cc2)cn1` [Example 157, (5-Methyl-pyrazin-2-yl)-((R)-4-morpholin-2-yl-phenyl)-amine], the Ki was over 10 µM.

Turning to `CNC(=O)c1cnc(Nc2ccc([C@H]3CNCCO3)cc2)nc1` [Example 158, 2-((S)-4-Morpholin-2-yl-phenylamino)-pyrimidine-5-carboxylic acid methylamide], the Ki worked out at 1.85 µM.

For the compound `CNC(=O)c1cnc(Nc2ccc([C@@H]3CNCCO3)cc2)nc1` [Example 159, 2-((R)-4-Morpholin-2-yl-phenylamino)-pyrimidine-5-carboxylic acid methylamide], the Ki was found to be 1.76 µM.

For the compound `Cc1ccc(Nc2ccc([C@H]3CNCCO3)cc2)nn1` [Example 160, (6-Methyl-pyridazin-3-yl)-((S)-4-morpholin-2-yl-phenyl)-amine], the Ki is 2.75 µM.

Take `c1ccc(Cn2ccc(Nc3ccc([C@H]4CNCCO4)cc3)n2)cc1` [Example 161, (1-Benzyl-1H-pyrazol-3-yl)-((S)-4-morpholin-2-yl-phenyl)-amine]: the Ki is 0.223 µM.

`c1ccc(Cn2ccc(Nc3ccc([C@@H]4CNCCO4)cc3)n2)cc1` [Example 162, (1-Benzyl-1H-pyrazol-3-yl)-((R)-4-morpholin-2-yl-phenyl)-amine]: the Ki was 0.127 µM.

For `c1ccc(-n2ccc(Nc3ccc([C@H]4CNCCO4)cc3)n2)cc1` [Example 163, ((S)-4-Morpholin-2-yl-phenyl)-(1-phenyl-1H-pyrazol-3-yl)-amine], the Ki was 0.0332 µM.

As to `c1ccc(-n2ccc(Nc3ccc([C@@H]4CNCCO4)cc3)n2)cc1` [Example 164, ((R)-4-Morpholin-2-yl-phenyl)-(1-phenyl-1H-pyrazol-3-yl)-amine], the Ki is 0.025 µM.

Take `c1cc([C@H]2CNCCO2)ccc1Nc1ccc(C2COC2)cn1` [Example 165, ((S)-4-Morpholin-2-yl-phenyl)-(5-oxetan-3-yl-pyridin-2-yl)-amine]: the Ki stood at 0.34 µM.

As for `Cc1cc([C@@H]2CNCCO2)ccc1Nc1ncc(C(F)(F)F)cn1` [Example 166, ((R)-2-Methyl-4-morpholin-2-yl-phenyl)-(5-trifluoromethyl-pyrimidin-2-yl)-amine], the Ki was found to be 0.159 µM.

Source of the values: patent US8802673B2, “Heterocyclic amine derivatives” (Hoffmann-La Roche Inc, priority 2011, dated 2014).
